Patent US20080121012A1, “Electrode Calibration” (priority 2004, published 2008)

Legend:
[1] = cited from earlier work
[2] = Detection of CO release using an amperometric CO sensor; format: physicochemical; conditions: 20 μM; for dissociation rate constant of CO / half-life: 37° C.
Text: The release of CO from CORM-A1 was also detected using a prototype electrode purchased from World Precision Instrument (Stevenage, Herts, UK). This CO electrode is a membrane-covered amperometric sensor which has been designed on a basic operating principle similar to the nitric oxide (NO) sensor (ISO-NOP series, World Precision Instruments). The CO sensor can be connected to the ISO-NO Mark II meter for detection of the current signals providing that the poise potential is set to a different value (900 mV for CO as opposed to 860 mV for NO). In principle, CO diffuses through the gas permeable membrane and is then oxidized to CO2 on the working electrode. This oxidation creates a current whose magnitude can be related directly to the concentration of CO in solution. The CO sensor was used to generate standard curves and calculate the rates of CO release from CORM-A1 at different pHs and temperatures. The electrode was immersed into the solutions at different pHs and equilibrated for 30 min prior to addition of CORM-A1. For the experiments conducted at 37, 30, 25 and 20° C., the solutions were maintained at the desired temperature using a Grant W6 thermostat (Cambridge, England).
CORM-A1 was also tested for its ability to liberate CO using an amperometric electrode sensitive to CO. […] A standard curve generated at pH=5.5 using CORM-A1 in a range between 10 and 50 μM indicated a good linear correlation (R^2=0.998) between the concentrations used and the electrode response (FIG. 3B). Therefore, a concentration of 20 μM CORM-A1 was then used to calculate the rate of CO dissociation from CORM-A1 at different pHs and temperatures. […] Specifically, from the curves shown in FIG. 3D, we can calculate that the initial rate of CO release at pH=5.5 is 6.84 μM/min at 37° C., 3.83 μM/min at 30° C., 2.16 μM/min at 25° C. and 1.22 μM/min at 20° C. Thus, the spontaneous liberation of CO from CORM-A1 in aqueous solutions is both pH- and temperature-dependent.

[3] = Detection of CO release using the myoglobin assay (conversion of deoxy-Mb to MbCO); format: physicochemical
Protocol: The release of CO from CORM-A1 (Na2[H3BCOO]) was assessed spectrophotometrically by measuring the conversion of deoxymyoglobin (deoxy-Mb) to carbonmonoxy myoglobin (MbCO) in a manner previously reported (refs. 3, 4, 5). A small aliquot of CORM-A1 (60 μM final concentration) was added to 1 ml deoxy-Mb (≈53 μM) in phosphate buffer and changes in the Mb spectra were recorded over time. The amount of MbCO formed was quantified by measuring the absorbance at 540 nm (extinction coefficient=[…]). In order to examine the effect of pH on the rate of CO liberation from CORM-A1, experiments were conducted using solutions of myoglobin in 0.04 M phosphate buffer prepared at different pHs (7.4, 7.0, 6.5 and 5.5). The amount of MbCO formed was plotted over time and the half-life of CORM-A1 at different pHs and temperatures was calculated from the fitted curves.
The conversion of deoxy-Mb to MbCO can be followed over time by measuring the changes in the absorption spectra of this protein. […] The Mb appears to be fully saturated 2 h after addition of CORM-A1 (see curve with filled diamonds in FIG. 1A). […] Specifically, from the fitted curves shown in FIG. 2A we can calculate that the half-lives of CORM-A1 at 37° C. are as follows: 21 min at pH=7.4; 7.1 min at pH=7.0; 3.3 min at pH=6.5; and 2.5 min at pH=5.5.

Compound	solubility [1]	dissociation rate constant of CO ([2]; pH=4.0)	dissociation rate constant of CO ([2]; pH=5.5)	half-life ([2]; pH=5.5)	dissociation rate constant of CO ([2]; pH=7.4)	half-life ([2]; pH=7.4)	initial rate of CO release ([2]; pH=5.5, 20° C.)	initial rate of CO release ([2]; pH=5.5, 25° C.)	initial rate of CO release ([2]; pH=5.5, 30° C.)	initial rate of CO release ([2]; pH=5.5, 37° C.)	time until Mb is fully saturated with CO ([3]; 60 μM, 37° C., pH=7.4)	mole of CO formed per mole of compound ([3]; pH=5.5, standard curve)
[C-]#[O+].[C-]#[O+].[C-]#[O+].[C-]#[O+].[C-]#[O+].[C-]#[O+].[Cl][Ru][Cl].[Cl][Ru][Cl] [CORM-2, tricarbonyldichlororuthenium(II) dimer]	soluble only in organic solvents	–	–	–	–	–	–	–	–	–	–	–
[C-]#[O+].[C-]#[O+].[C-]#[O+].[C-]#[O+].[C-]#[O+].[C-]#[O+].[C-]#[O+].[C-]#[O+].[C-]#[O+].[C-]#[O+].[Mn].[Mn] [CORM-1, manganese decacarbonyl]	soluble only in organic solvents	–	–	–	–	–	–	–	–	–	–	–
sodium boranocarbonate [CORM-A1]	–	0.011 s⁻¹	0.0058 s⁻¹	1.96 min	0.00055 s⁻¹	21.06 min	1.22 µM/min	2.16 µM/min	3.83 µM/min	6.84 µM/min	2 h	one
